Data published in the Bradley open melting point set (2014).
Where “and” joins values, the source holds several entries; their conditions need not be identical. Identical values can stand only once.

For Nc1cccc(Br)c1 [m-bromoaniline], which melting point is on record?
The melting point was 17 °C.

Which melting point does the source give for Oc1cccc(Cl)c1 [m-chlorophenol] here?
Its melting point is 34 °C.

With N#Cc1cccc(-c2ccccc2)c1 [m-cyanobiphenyl] as the molecule, how does the melting point read?
The melting point was 49 °C.

For CC(=O)c1cccc(C(C)=O)c1 [m-diacetylbenzene], which melting point is on record?
The melting point was 36 °C.

For N#CCc1cccc(O)c1 [m-hydroxy_phenylacetonitrile], which melting point is on record?
Its melting point is 53 °C.

With O=C(O)c1cccc(CO)c1 [m-hydroxymethyl_benzoic_acid] as the molecule, how does the melting point read?
Its melting point is 115 °C.

Which melting point does the source give for N#Cc1cccc(CO)c1 [m-hydroxymethyl_benzonitrile] here?
The melting point was 28 °C.

Which melting point does the source give for Nc1cccc(I)c1 [m-iodoaniline] here?
The melting point was 25 °C.

For O=C(O)Cc1cccc([N+](=O)[O-])c1 [m-nitro_phenylacetic_acid], which melting point is on record?
Its melting point is 119 °C.

With Cc1cccc([N+](=O)[O-])c1 [m-nitrotoluene] as the molecule, how does the melting point read?
Its melting point is 16 °C.

With Cc1cccc(C(N)=O)c1 [m-toluamide] as the molecule, how does the melting point read?
The melting point was 96 °C.

Which melting point does the source give for Cc1cccc(C)c1 [m-xylene] here?
The melting point was -47 °C.

Which melting point does the source give for ClCc1cccc(CCl)c1 [m-xylylene dichloride] here?
Its melting point is 35 °C.

With O=C1C=CC(=O)O1 [maleic anhydride] as the molecule, how does the melting point read?
The melting point was 54 °C.

Which melting point does the source give for N#CCC#N [malononitrile] here?
Its melting point is 34 °C.

Which melting point does the source give for Cc1cccc(Nc2ccccc2C(=O)O)c1C [mefenamic acid] here?
Its melting point is 230 °C.

For C=C1CC2C3C=C(C)C4=CC(=O)CCC4(C)C3CCC2(C)C1(OC(C)=O)C(C)=O (stereo not drawn) [melengestrolacetate], which melting point is on record?
The melting point was 224 °C.

With CCC1(c2ccccc2)C(=O)NC(=O)N(C)C1=O (stereo not drawn) [mephobarbital] as the molecule, how does the melting point read?
The melting point was 176 °C.

For O=C(O)CC(S)C(=O)O (stereo not drawn) [mercaptosuccinic acid], which melting point is on record?
The melting point was 152 °C.

Which melting point does the source give for Cc1cc(C)cc(C)c1 [mesitylene] here?
The melting point was -45 °C.

For COCC(=O)N(c1c(C)cccc1C)C(C)C(=O)OC (stereo not drawn) [metalaxyl], which melting point is on record?
The melting point was 72 °C.

Which melting point does the source give for CC(C)NCC(O)c1cc(O)cc(O)c1 (stereo not drawn) [metaproterenol] here?
Its melting point is 100 °C.

Which melting point does the source give for C=C(C)C=O [methacrolein] here?
Its melting point is -81 °C.

Which melting point does the source give for C [methane] here?
The melting point was -183 °C.

For CS(=O)(=O)OS(C)(=O)=O [methanesulfonic anhydride], which melting point is on record?
The melting point was 67 °C.

Which melting point does the source give for CS(=O)(=O)Cl [methanesulfonyl chloride] here?
Its melting point is -33 °C.

Which melting point does the source give for COc1ccc(C(=O)c2ccccc2Cl)cc1OC [methanone, (2-chlorophenyl)(3,4-dimethoxyphenyl)-] here?
Its melting point is 126 °C.

With CCC1(CC)C(=O)NC(=O)N(C)C1=O [metharbital] as the molecule, how does the melting point read?
The melting point was 150 °C.

Which melting point does the source give for COCC(=O)O [methoxyacetic acid] here?
Its melting point is 8 °C.

With COC(=O)c1ccc2[nH]nnc2c1 [methyl 1h-benzotriazole-5-carboxylate] as the molecule, how does the melting point read?
Its melting point is 174 °C.

With COC(=O)C1(C)C(C)=Nc2ccccc21 (stereo not drawn) [methyl 2,3-dimethyl-3H-indole-3-carboxylate] as the molecule, how does the melting point read?
Its melting point is 81 °C.

With COC(=O)c1cc(O)c(O)c(O)c1 [methyl 3,4,5-trihydroxybenzoate] as the molecule, how does the melting point read?
The melting point was 201 °C.

With COC(=O)CCC(C)C1CCC2C3C=CC4CC(OC(C)=O)CCC4(C)C3CC(OC(C)=O)C12C (stereo not drawn) [methyl 3,12-bis(acetyloxy)chol-6-en-24-oate] as the molecule, how does the melting point read?
Its melting point is 84 °C.

For COC(=O)CCC(C)C1CCC2C3CCC4CC(=O)CCC4(C)C3CC(=O)C12C (stereo not drawn) [methyl 3,12-dioxocholan-24-oate], which melting point is on record?
Its melting point is 130 °C.

Which melting point does the source give for COC(=O)c1sccc1N [methyl 3-aminothiophene-2-carboxylate] here?
Its melting point is 65 °C.

For COC(=O)CCC(C)C1CCC2C3CCC4CC(=O)CCC4(C)C3CCC12C (stereo not drawn) [methyl 3-oxocholan-24-oate], which melting point is on record?
The melting point was 117 °C.

Which melting point does the source give for COC(=O)c1ccc(N(C)C)cc1 [methyl 4-dimethylaminobenzoate] here?
The melting point was 100 °C.

With COC(=O)C1C(=O)C=C(O)CC1C (stereo not drawn) [methyl 4-hydroxy-6-methyl-2-oxo-3-cyclohexene-1-carboxylate] as the molecule, how does the melting point read?
Its melting point is 123 °C.

Which melting point does the source give for COC(=O)CCC(C)C1CCC2C3C(OC(C)=O)CC4CC(=O)CCC4(C)C3CC(=O)C12C (stereo not drawn) [methyl 7-(acetyloxy)-3,12-dioxocholan-24-oate] here?
Its melting point is 166 °C.

For COC(=O)/C(=C\c1ccccc1)Cc1ccccc1 [methyl (2Z)-2-benzyl-3-phenylprop-2-enoate], which melting point is on record?
Its melting point is 28 °C.

For COC(=O)CC(C)=O [methyl acetoacetate], which melting point is on record?
Its melting point is -80 °C.

For C=CC(=O)OC [methyl acrylate], which melting point is on record?
Its melting point is -75 °C.

With CO[C@@H]1O[C@H](CO)[C@H](O)[C@H](O)[C@H]1O [methyl beta-d-galactopyranoside] as the molecule, how does the melting point read?
The melting point was 177 °C.

Which melting point does the source give for COC(N)=O [methyl carbamate] here?
Its melting point is 55 °C.

Which melting point does the source give for COC(=O)C(C#N)c1ccccc1[N+](=O)[O-] (stereo not drawn) [methyl cyano(2-nitrophenyl)acetate] here?
The melting point was 88 °C.

For CCCCCCCC/C=C/CCCCCCCC(=O)OC [methyl elaidate], which melting point is on record?
Its melting point is 10 °C.

With COC(=O)C(O)c1ccccc1[N+](=O)[O-] (stereo not drawn) [methyl hydroxy(2-nitrophenyl)acetate] as the molecule, how does the melting point read?
The melting point was 62 °C.

For C=C(C)C(=O)OC [methyl methacrylate], which melting point is on record?
Its melting point is -48 °C.

With COC(=O)CS(C)(=O)=O [methyl methylsulfonylacetate] as the molecule, how does the melting point read?
Its melting point is 61 °C.

With COC(=O)c1ccc(C)cc1 [methyl p-toluate] as the molecule, how does the melting point read?
Its melting point is 34 °C.

With COS(=O)(=O)c1ccc(C)cc1 [methyl p-toluenesulfonate] as the molecule, how does the melting point read?
Its melting point is 26 °C.

Which melting point does the source give for CS(=O)(=O)c1ccccc1 [methyl phenyl sulfone] here?
Its melting point is 87 °C.

With CCC(=O)OC [methyl propionate] as the molecule, how does the melting point read?
The melting point was -88 °C.

Which melting point does the source give for COC(=O)c1cccc(OC(C)=O)c1 [methyl_3-acetoxybenzoate] here?
Its melting point is 29 °C.

For COC(=O)c1cccc([N+](=O)[O-])c1 [methyl_3-nitrobenzoate], which melting point is on record?
Its melting point is 80 °C.

Which melting point does the source give for COC(=O)c1ccc(CO)cc1 [methyl_4-hydroxymethylbenzoate] here?
The melting point was 51 °C.

With COC(=O)c1ccc(C)cc1 [methyl_4-methylbenzoate] as the molecule, how does the melting point read?
Its melting point is 37 °C.

Which melting point does the source give for COC(=O)CC(C)=O [methyl_acetoacetate] here?
Its melting point is -80 °C.

For CC#N [methyl_cyanide], which melting point is on record?
Its melting point is -46 °C.

With C=C(C)C(=O)OC [methyl_methacrylate] as the molecule, how does the melting point read?
The melting point was -48 °C.

For COC(=O)c1ccccc1O [methyl_salicylate], which melting point is on record?
Its melting point is -7 °C.

With CB(O)O [methylboronic acid] as the molecule, how does the melting point read?
Its melting point is 92 °C.

Which melting point does the source give for O=P(O)(O)CP(=O)(O)O [methylenediphosphonic acid] here?
The melting point was 203 °C.

Which melting point does the source give for C[C@]12CCC(=O)C=C1CC[C@@H]1[C@@H]2CC[C@@]2(C)[C@H]1CC[C@]2(C)O [methyltestosterone] here?
The melting point was 164 °C.

With CCN(CC)CCNC(=O)c1cc(Cl)c(N)cc1OC [metoclopramide] as the molecule, how does the melting point read?
The melting point was 147 °C.

With Cc1ccccc1N1C(=O)c2cc(S(N)(=O)=O)c(Cl)cc2NC1C (stereo not drawn) [metolazone] as the molecule, how does the melting point read?
Its melting point is 252 °C.

Which melting point does the source give for COC(=O)c1ccc(C(=O)O)cc1 [mono-methyl_terephthalate] here?
Its melting point is 221 °C.

With C1COCCN1 [morpholine] as the molecule, how does the melting point read?
The melting point was -5 °C.

For C#CC1(O)CCC2C3CCc4cc(O)ccc4C3C(OC)CC21C (stereo not drawn) [moxestrol], which melting point is on record?
Its melting point is 280 °C.

Which melting point does the source give for CCN(CC)c1ccccc1 [n,n-diethylaniline] here?
The melting point was -38 °C.

Which melting point does the source give for CC(C)(C)NCC(O)COc1cccc2c1CC(O)C(O)C2 (stereo not drawn) [nadolol] here?
Its melting point is 124 °C.

Which melting point does the source give for CN(C)C(=S)Sc1ccc2ccccc2c1 [naphthalen-2-yl dimethyldithiocarbamate] here?
The melting point was 114 °C.

For c1ccc2ccccc2c1 [naphthalene], which melting point is on record?
The melting point was 80 °C and 82 °C and 81 °C.
